Test results: US8431540B2, “Modified lysine-mimetic compounds” (Zealand Pharma A/S, priority 2005, dated 2013)

Tests used:
[1] = system: Male CD-1 mice; assay: Calcium-induced arrhythmia model (time to AV block after CaCl2 infusion); type: in vivo; details: compound IV 3 min before CaCl2 infusion (100 mg/kg/min), saline control 62-78
Experimental: Peptides suitable for administration to cardiac cells can be identified in an in vivo model of calcium-induced arrhythmias according to the model of Lynch et al. (1981) J Cardiovasc. Pharmacol. 3: 49-60. Male CD-1 mice are anaesthetized with Ketamine (75 mg/kg) and medetomidine (1 mg/kg) IP. An i.v. cannula is inserted into the tail vein. A lead II ECG signal is recorded continuously by positioning stainless steel ECG electrodes on the right forelimb and […]. The ground electrode is placed on the right hind limb. The signal is amplified and filtered using Gould physiograph components and po-ne-mah data acquisition software. After a 90 sec equilibration period test compound is injected into the tail vein (over 30 seconds). Mice pre-treated with vehicle are tested as control animals. The injection volume is 100 μl/30 g mice in all experiments. Infusion of CaCl2 (30 mg/mL, 0.1 mL/min/30 g mice, 100 mg/kg/min) is started 3 min after IV administration of drug or vehicle (0.9% saline). The time lag to onset of cardiac conduction block is determined as the time from the start of CaCl2 infusion until the first arrhythmic event occurred. The first conduction block is defined as the first RR-interval, larger than or equal to 3 times one RR-interval from the pre-treatment period. The first arrhythmic event occurring is either a second degree AV-block (intermittent failure of the AV conduction characterized by a P-wave without the concomitant QRS complex) or a second degree SA block (prolonged RR-interval and a QRS-complex without a preceding P-wave). Responses are expressed relative to the time until 2nd degree AV-block occurred in vehicle treated mice.
The anti-arrhythmic effect of compounds according to the present teachings was tested in a model of calcium-induced arrhythmias according to the model of Lynch et al., J. Cardiovasc. Pharmacol. (1981), 3: 49-60. Male CD-1 mice were anaesthetized with Ketamine (75 mg/kg) and medetomidine (1 mg/kg) IP. An i.v. cannula was inserted into the tail vein. A lead II ECG signal was recorded continuously by positioning stainless steel ECG electrodes on the right forelimb and […]. The ground electrode was placed on the right hind limb. The signal was amplified and filtered using Gould physiograph components and po-ne-mah data acquisition software. After a 90 sec equilibration period test compound was injected into the tail vein (over 30 seconds). Mice pre-treated with vehicle (0.9% saline) were tested as control animals. The injection volume was 100 μl/30 g mice in all experiments. Infusion of CaCl2 (30 mg/mL, 0.1 mL/min/30 g mice, 100 mg/kg/min) was started 3 min after IV administration of drug or vehicle. The time lag to onset of cardiac conduction block was determined as the time from the start of CaCl2 infusion until the first arrhythmic event occurred. The first conduction block was defined as the first RR-interval, larger/or equal to, 3 times one RR-interval from the pre-treatment period. The first arrhythmic event occurring was either a second degree AV-block (intermittent failure of the AV conduction characterized by a P-wave without the concomitant QRS complex) or a second degree SA block (prolonged RR-interval and a QRS-complex without a preceding P-wave).
Mice pre-treated with vehicle (0.9% saline) were tested on all days as a measure for control level in untreated animal. Injection volume was 100 μL in all experiments. The time lag to onset of arrhythmias was determined as the time from the start of CaCl2 infusion until the first event of conduction block defined as intermittent failure of the SA or AV conduction characterized by delayed P-wave activation (SA block) or by a P-wave without the concomitant QRS complex (AV block). The time lag to onset of AV block is given below in Table 2.

[2] = system: C6 glioma cells overexpressing connexin43; assay: In vitro cell swelling and dye uptake model (simulated ischemia); type: cell-based
Experimental: In this experiment, the effect of Compound 2 on calcein dye-uptake induced by metabolic inhibition in cultured C6 glioma cells overexpressing connexin43 was studied. Cells were incubated under control conditions and during simulated ischemia (SI) for 40 minutes in the presence of calcein (200 μM). Following incubation the cells were subjected to epifluorescence microscopy to determine the uptake of calcein. Incubation of C6 cells in SI medium increased dye-uptake to 5-fold above control values.

[3] = system: dogs subjected to a 60-min coronary artery occlusion and 4 hr reperfusion; assay: Canine infarct size and reperfusion arrhythmia model; type: in vivo; details: dog, two highest doses; for Total incidence of VT: IV 10-min before reperfusion, controls 23.0±6.1; for Total PVC's: during reperfusion, control 11.1±1.6%; for Infarct size, expressed as percent of left ventricle: controls 19.0±3.5
Experimental: Compound 2 was tested in dogs subjected to a 60-min coronary artery occlusion and 4 hr reperfusion, as described by Hennan et al. ([…]., 317, 236-43 (2006)). Compound 2 was administered IV 10-min before reperfusion as a bolus+IV infusion at doses of: 0.25 μg/kg bolus+0.19 μg/kg/hr infusion (n=6); 2.5 μg/kg bolus+1.9 μg/kg/hr infusion (n=7); 25 μg/kg bolus+19 μg/kg/hr infusion (n=6); 75 μg/kg bolus+57 μg/kg/hr infusion (n=5); vehicle control (n=7). Premature ventricular complexes (PVC's) were quantified during reperfusion. Four or more consecutive PVC's was defined as ventricular tachycardia (VT).

[4] = first value (25 μg/kg bolus+19 μg/kg/hr infusion)
[5] = second value (75 μg/kg bolus+57 μg/kg/hr infusion)

For `NCC(=O)N1C[C@H](NC(=O)c2ccccc2)C[C@H]1C(=O)O` [Compound 2, (2S4R)1-(2-Amino-acetyl)-4-benzoylamino-pyrrolidine-2-carboxylic acid], the “Time to AV block” value [1] was 134.7 s, the “half-life in male rat liver microsomes” value was “greater than 30 minutes” and the “relative reduction of the SI inducible calcein dye-uptake response” value ([2]; 100 μM compound, simulated ischemia 40 minutes, calcein 200 μM, p<0.05 vs. vehicle) was 32%. The “calcein dye-uptake during simulated ischemia” value ([2]; C6 glioma cells overexpressing connexin43, simulated ischemia 40 minutes) was “dose-dependently inhibited”, the “cell swelling during the 40 min stress period” value ([2]; C6 glioma cells, control cells exhibited cell swelling) was “did not” and the “Total incidence of VT” value [3, 4] was 1.7±0.8 events. The “Total incidence of VT” value [3, 5] was 2.2±1.4 events, the “Total PVC's” value [3, 4] was 2.0±0.7% and the “Total PVC's” value [3, 5] was 1.8±0.8%. For the same molecule, the “Infarct size, expressed as percent of left ventricle” value [3, 4] was 7.9±1.5% and the “Infarct size, expressed as percent of left ventricle” value [3, 5] was 7.1±0.8%.
